Target: T1, NHE-1 (Homo sapiens, UniProt P19634)
T1 construct: endogenous in cells; host or cells: HT-29
Experiment: Evaluation of NHE-1 Inhibition (pHi) in HT-29 cells
Type: cell-based
Conditions: BCECF dye, 50% inhibition of the intracellular pH recovery, read-out: NHE1 HT29 pHi IC50
In short: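 Intracellular pH measured with BCECF in HT-29 cells after 24 h culture. Cells dye-loaded 30 min at 37° C, then acid-loaded with NH4Cl-containing choline buffer (pH 7.5) for 30 min at RT. Compounds added on an FDSS6000 fluorescence reader.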

T1 sequence (P19634 whole entry): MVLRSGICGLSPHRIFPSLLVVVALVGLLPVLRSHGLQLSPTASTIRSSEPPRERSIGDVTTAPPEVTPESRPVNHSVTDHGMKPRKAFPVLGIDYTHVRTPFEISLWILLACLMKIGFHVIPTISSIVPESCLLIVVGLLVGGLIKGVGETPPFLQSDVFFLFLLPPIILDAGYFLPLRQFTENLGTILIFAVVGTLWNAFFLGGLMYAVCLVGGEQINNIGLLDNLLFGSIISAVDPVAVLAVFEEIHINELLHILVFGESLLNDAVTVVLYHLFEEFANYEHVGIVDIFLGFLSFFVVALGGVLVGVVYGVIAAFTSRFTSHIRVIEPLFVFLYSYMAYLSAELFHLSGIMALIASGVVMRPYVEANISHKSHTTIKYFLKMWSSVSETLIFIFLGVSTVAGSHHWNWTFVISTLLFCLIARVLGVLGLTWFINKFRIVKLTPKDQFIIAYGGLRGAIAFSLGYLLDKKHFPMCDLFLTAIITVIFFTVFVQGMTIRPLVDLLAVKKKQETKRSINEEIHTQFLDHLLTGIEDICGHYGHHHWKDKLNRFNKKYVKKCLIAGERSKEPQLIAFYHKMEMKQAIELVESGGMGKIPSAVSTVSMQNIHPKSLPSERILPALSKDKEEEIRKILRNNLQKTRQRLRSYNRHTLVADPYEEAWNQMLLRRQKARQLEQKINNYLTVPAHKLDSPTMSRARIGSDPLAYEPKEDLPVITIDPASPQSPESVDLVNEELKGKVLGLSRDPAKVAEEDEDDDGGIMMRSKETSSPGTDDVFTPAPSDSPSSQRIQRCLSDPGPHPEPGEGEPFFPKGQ

Row | SMILES | IC50
1 | N=C(N)NC(=O)c1ccc(C2CCN(C(=O)c3ccc(F)cc3)CC2)c(C(F)(F)F)c1 [N-{4-[1-(4-Fluoro-benzoyl)-piperidin-4-yl]-3-trifluoromethyl-benzoyl}-guanidine] | 110 nM
2 | Cc1cc(C2CCN(C(=O)c3ccc(F)cc3)CC2)c(S(C)(=O)=O)cc1C(=O)NC(=N)N [N-{4-[1-(4-Fluoro-benzoyl)-piperidin-4-yl]-5-methanesulfonyl-2-methyl-benzoyl}-guanidine] | 23 nM
3 | N=C(N)NC(=O)c1ccc(C2CCN(C(=O)c3ccc(F)cc3)C2)c(C(F)(F)F)c1 (stereo not drawn) [N-{4-[1-(4-Fluoro-benzoyl)-pyrrolidin-3-yl]-3-trifluoromethyl-benzoyl}-guanidine] | 40 nM
4 | N=C(N)NC(=O)c1ccc(C2CCN(C(=O)c3ccc(O)cc3)CC2)c(C(F)(F)F)c1 [N-{4-[1-(4-Hydroxy-benzoyl)-piperidin-4-yl]-3-trifluoromethyl-benzoyl}-guanidine] | 25 nM
5 | N=C(N)NC(=O)c1ccc(C2=CCN(C(=O)c3ccc(-n4ccnc4)cc3)CC2)c(C(F)(F)F)c1 [N-{4-[1-(4-Imidazol-1-yl-benzoyl)-1,2,3,6-tetrahydro-pyridin-4-yl]-3-trifluoromethyl-benzoyl}-guanidine] | 33 nM
6 | N=C(N)NC(=O)c1ccc(C2CCN(C(=O)c3ccc(-n4ccnc4)cc3)CC2)c(C(F)(F)F)c1 [N-{4-[1-(4-Imidazol-1-yl-benzoyl)-piperidin-4-yl]-3-trifluoromethyl-benzoyl}-guanidine] | 71 nM
7 | C[S+]([O-])c1ccc(C(=O)N2CCC(c3ccc(C(=O)NC(=N)N)cc3C(F)(F)F)CC2)cc1 (stereo not drawn) [N-{4-[1-(4-Methanesulfinyl-benzoyl)-piperidin-4-yl]-3-trifluoromethyl-benzoyl}-guanidine] | 28 nM
8 | CS(=O)(=O)c1ccc(C(=O)N2CC=C(c3ccc(C(=O)NC(=N)N)cc3C(F)(F)F)CC2)cc1 [N-{4-[1-(4-Methanesulfonyl-benzoyl)-1,2,3,6-tetrahydro-pyridin-4-yl]-3-trifluoromethyl-benzoyl}-guanidine] | 49 nM
9 | Cc1cc(C2CCN(C(=O)c3ccc(S(C)(=O)=O)cc3)CC2)c(C(F)(F)F)cc1C(=O)NC(=N)N [N-{4-[1-(4-Methanesulfonyl-benzoyl)-piperidin-4-yl]-2-methyl-5-trifluoromethyl-benzoyl}-guanidine] | 20 nM
10 | CS(=O)(=O)c1ccc(C(=O)N2CCC(c3ccc(C(=O)NC(=N)N)cc3C(F)(F)F)CC2)cc1 [N-{4-[1-(4-Methanesulfonyl-benzoyl)-piperidin-4-yl]-3-trifluoromethyl-benzoyl}-guanidine] | 21 nM
11 | COc1ccc(C(=O)N2CCC(c3ccc(C(=O)NC(=N)N)cc3C(F)(F)F)CC2)cc1 [N-{4-[1-(4-Methoxy-benzoyl)-piperidin-4-yl]-3-trifluoromethyl-benzoyl}-guanidine] | 195 nM
12 | COc1ccc(C(=O)N2CCC(c3ccc(C(=O)NC(=N)N)cc3C(F)(F)F)CC2)c2ccccc12 [N-{4-[1-(4-Methoxy-naphthalene-1-carbonyl)-piperidin-4-yl]-3-trifluoromethyl-benzoyl}-guanidine] | 320 nM
13 | COCc1ccc(C(=O)N2CCC(c3ccc(C(=O)NC(=N)N)cc3C(F)(F)F)CC2)cc1 [N-{4-[1-(4-Methoxymethyl-benzoyl)-piperidin-4-yl]-3-trifluoromethyl-benzoyl}-guanidine] | 122 nM
14 | CN1CCOc2cc(C(=O)N3CCC(c4ccc(C(=O)NC(=N)N)cc4C(F)(F)F)CC3)ccc21 [N-{4-[1-(4-Methyl-3,4-dihydro-2H-benzo[1,4]oxazine-7-carbonyl)-piperidin-4-yl]-3-trifluoromethyl-benzoyl}-guanidine] | 47 nM
15 | N=C(N)NC(=O)c1ccc(C2CCN(C(=O)c3ccc(-c4cnco4)cc3)CC2)c(C(F)(F)F)c1 [N-{4-[1-(4-Oxazol-5-yl-benzoyl)-piperidin-4-yl]-3-trifluoromethyl-benzoyl}-guanidine] | 109 nM
16 | N=C(N)NC(=O)c1ccc(C2CCN(C(=O)c3ccc(-n4cccn4)cc3)CC2)c(C(F)(F)F)c1 [N-{4-[1-(4-Pyrazol-1-yl-benzoyl)-piperidin-4-yl]-3-trifluoromethyl-benzoyl}-guanidine] | 88 nM
17 | N=C(N)NC(=O)c1ccc(C2CCN(C(=O)c3ccc(N4CCCC4)cc3)CC2)c(C(F)(F)F)c1 [N-{4-[1-(4-Pyrrolidin-1-yl-benzoyl)-piperidin-4-yl]-3-trifluoromethyl-benzoyl}-guanidine] | 250 nM
18 | N=C(N)NC(=O)c1ccc(C2CCN(C(=O)c3ccc(S(=O)(=O)C(F)(F)F)cc3)CC2)c(C(F)(F)F)c1 [N-{4-[1-(4-Trifluoromethanesulfonyl-benzoyl)-piperidin-4-yl]-3-trifluoromethyl-benzoyl}-guanidine] | 230 nM
19 | Cc1cc(C2CCN(C(=O)c3ccc(C#N)cc3)CC2)c(C(F)(F)F)cc1C(=O)NC(=N)N [N-{4-[1-(4-cyano-benzoyl)-piperidin-4-yl]-2-methyl-5-trifluoromethyl-benzoyl}-guanidine] | 36 nM
20 | Cc1cc(C2CCN(C(=O)c3ccc(C#N)cc3)CC2)c(S(C)(=O)=O)cc1C(=O)NC(=N)N [N-{4-[1-(4-cyano-benzoyl)-piperidin-4-yl]-5-methanesulfonyl-2-methyl-benzoyl}-guanidine] | 27 nM

The next lines start with the values.

Row | IC50 | SMILES
21 | 204 nM | N=C(N)NC(=O)c1ccc(C2CCN(C(=O)c3cncc(-c4ccccc4)c3)CC2)c(C(F)(F)F)c1 [N-{4-[1-(5-Phenyl-pyridine-3-carbonyl)-piperidin-4-yl]-3-trifluoromethyl-benzoyl}-guanidine]
22 | 39 nM | N#Cc1ccc(C(=O)N2CCC(c3ccc(C(=O)NC(=N)N)cc3C(F)(F)F)CC2)cn1 [N-{4-[1-(6-Cyano-pyridine-3-carbonyl)-piperidin-4-yl]-3-trifluoromethyl-benzoyl}-guanidine]
23 | 21 nM | N=C(N)NC(=O)c1ccc(C2CCN(C(=O)c3ccc(O)nc3)CC2)c(C(F)(F)F)c1 [N-{4-[1-(6-Hydroxy-pyridine-3-carbonyl)-piperidin-4-yl]-3-trifluoromethyl-benzoyl}-guanidine]
24 | 14 nM | N=C(N)NC(=O)c1ccc(C2CCN(C(=O)c3ccc(-n4ccnc4)nc3)CC2)c(C(F)(F)F)c1 [N-{4-[1-(6-Imidazol-1-yl-pyridine-3-carbonyl)-piperidin-4-yl]-3-trifluoromethyl-benzoyl}-guanidine]
25 | 390 nM | COc1ccc2cc(C(=O)N3CCC(c4ccc(C(=O)NC(=N)N)cc4C(F)(F)F)CC3)ccc2c1 [N-{4-[1-(6-Methoxy-naphthalene-2-carbonyl)-piperidin-4-yl]-3-trifluoromethyl-benzoyl}-guanidine]
26 | 58 nM | COc1ccc(C(=O)N2CCC(c3ccc(C(=O)NC(=N)N)cc3C(F)(F)F)CC2)cn1 [N-{4-[1-(6-Methoxy-pyridine-3-carbonyl)-piperidin-4-yl]-3-trifluoromethyl-benzoyl}-guanidine]
27 | 92 nM | N=C(N)NC(=O)c1ccc(C2CCN(C(=O)c3ccc(-n4cccn4)nc3)CC2)c(C(F)(F)F)c1 [N-{4-[1-(6-Pyrazol-1-yl-pyridine-3-carbonyl)-piperidin-4-yl]-3-trifluoromethyl-benzoyl}-guanidine]
28 | 75 nM | N=C(N)NC(=O)c1ccc(C2CCN(C(=O)c3ccc(N4CCCC4)nc3)CC2)c(C(F)(F)F)c1 [N-{4-[1-(6-Pyrrolidin-1-yl-pyridine-3-carbonyl)-piperidin-4-yl]-3-trifluoromethyl-benzoyl}-guanidine]
29 | 114 nM | N=C(N)NC(=O)c1ccc(C2CCN(C(=O)c3ccc4ncsc4c3)CC2)c(C(F)(F)F)c1 [N-{4-[1-(Benzothiazole-6-carbonyl)-piperidin-4-yl]-3-trifluoromethyl-benzoyl}-guanidine]
30 | 55 nM | N=C(N)NC(=O)c1ccc(C2CCN(C(=O)c3ccco3)CC2)c(C(F)(F)F)c1 [N-{4-[1-(Furan-2-carbonyl)-piperidin-4-yl]-3-trifluoromethyl-benzoyl}-guanidine]
31 | 11 nM | N=C(N)NC(=O)c1ccc(C2CCN(C(=O)c3ccco3)C2)c(C(F)(F)F)c1 (stereo not drawn) [N-{4-[1-(Furan-2-carbonyl)-pyrrolidin-3-yl]-3-trifluoromethyl-benzoyl}-guanidine]
32 | 17 nM | N=C(N)NC(=O)c1ccc(C2CCN(C(=O)c3cn4ccccc4n3)CC2)c(C(F)(F)F)c1 [N-{4-[1-(Imidazo[1,2-a]pyridine-2-carbonyl)-piperidin-4-yl]-3-trifluoromethyl-benzoyl}-guanidine]
33 | 35 nM | N=C(N)NC(=O)c1ccc(C2CCN(C(=O)C3COCCN3)CC2)c(C(F)(F)F)c1 (stereo not drawn) [N-{4-[1-(Morpholine-3-carbonyl)-piperidin-4-yl]-3-trifluoromethyl-benzoyl}-guanidine]
34 | 260 nM | N=C(N)NC(=O)c1ccc(C2CCN(C(=O)c3cccc4ccccc34)CC2)c(C(F)(F)F)c1 [N-{4-[1-(Naphthalene-1-carbonyl)-piperidin-4-yl]-3-trifluoromethyl-benzoyl}-guanidine]
35 | 9 nM | N=C(N)NC(=O)c1ccc(C2CCN(C(=O)C3CCCCN3)CC2)c(C(F)(F)F)c1 (stereo not drawn) [N-{4-[1-(Piperidine-2-carbonyl)-piperidin-4-yl]-3-trifluoromethyl-benzoyl}-guanidine]
36 | 17 nM | N=C(N)NC(=O)c1ccc(C2CCN(C(=O)C3CCCNC3)CC2)c(C(F)(F)F)c1 (stereo not drawn) [N-{4-[1-(Piperidine-3-carbonyl)-piperidin-4-yl]-3-trifluoromethyl-benzoyl}-guanidine]
37 | 6 nM | N=C(N)NC(=O)c1ccc(C2CCN(C(=O)C3CCNCC3)CC2)c(C(F)(F)F)c1 [N-{4-[1-(Piperidine-4-carbonyl)-piperidin-4-yl]-3-trifluoromethyl-benzoyl}-guanidine]
38 | 10 nM | N=C(N)NC(=O)c1ccc(C2CCN(C(=O)c3ccccn3)CC2)c(C(F)(F)F)c1 [N-{4-[1-(Pyridine-2-carbonyl)-piperidin-4-yl]-3-trifluoromethyl-benzoyl}-guanidine]
39 | 10 nM | N=C(N)NC(=O)c1ccc(C2CCN(C(=O)c3cccnc3)CC2)c(C(F)(F)F)c1 [N-{4-[1-(Pyridine-3-carbonyl)-piperidin-4-yl]-3-trifluoromethyl-benzoyl}-guanidine]
